Several values for one entry are separate records, joined by “and”; a condition that tells them apart may be missing. Identical values can stand only once.
Assay: Phase 1a single ascending dose study: UV-4 in pooled urine, urinary recovery and renal clearance
Type: in vivo, human
Method: Serial blood samples were collected at pre-dose (0 hour) and 0.5, 1, 1.5, 2, 2.5, 3, 4, 6, 9, 12, 18, 24, 36, and 48 hours post-dose for assessment of UV-4 concentrations in plasma. Pooled urine samples were collected at pre-dose (-12 to 0 hour) and from 0 to 6, 6 to 12, 12 to 24, and 24 to 48 hours post-dose for assessment of UV-4 concentrations in urine. Plasma and urine concentrations of UV-4 were determined by means of validated, sensitive, and specific high-performance liquid chromatography/tandem mass spectrometric (LC-MS/MS) assays. UV-4 plasma and urine concentrations and PK parameters were listed and summarized by dose, as appropriate. Only the 48 subjects who received active investigational product were included in the PK analysis population.
8.2.3 Specimen Preparation, Handling, and Shipping
8.2.3.1 Instructions for Specimen Preparation, Handling, and Storage
The collected PK blood samples (2 mL) will be placed on ice after blood draw, and within 1 hour centrifuged at room temperature at approximately 3000 revolutions per minute for 15 minutes. Plasma will then be harvested and split into 4 aliquots of approximately 250 μ L and stored frozen at -20°C until shipped.
Urine samples (approximately 10 mL) for determination of UV-4 concentrations in urine will be taken from the total volume provided during each collection period. The total volume of each urine collection will be recorded along with the start/stop time for each urine collection interval.
Analysis of plasma and urine for UV-4 will be performed by the qualified bioanalytical laboratory, Quintiles Bioservices, Inc., Ithaca, New York 14950. Instructions for the proper preparation, handling, storage and shipping of specimens will be provided separately in a study-specific laboratory manual (i.e., Biopacket).
8.2.3.2 Specimen Shipment […]
The following single-dose urine PK parameters will be estimated from the UV-4 urine concentration-time data collected, as appropriate:
Ae Amount of UV-4 excreted in urine unchanged, calculated for each collection interval and cumulatively across intervals fe Fraction of UV-4 excreted in urine unchanged, calculated for each collection interval and cumulatively across intervals […]
Additional UV-4 PK parameters may be calculated at the discretion of the […]
Plasma concentrations and plasma and urine PK parameters will be summarized by treatment using descriptive statistics, as appropriate. Figures for the arithmetic mean (and SD) concentration-time data will be presented for all doses on both a linear and semi-logarithmic scale. Individual concentration-time data will be graphically presented on linear and semi-logarithmic scales. Scatter plots of individual and geometric mean PK parameters versus dose will be presented. Additional graphical presentations of PK data may be added at the discretion of the PK analyst.
Dose proportionality of Cmax, AUC(0-last), and AUC(0-inf) will be assessed graphically and statistically using the power model approach with the logarithm of PK parameters AUC(0-inf) and Cmax as the dependent variables and the logarithm of the dose as the independent variable: ([AUC(0-inf), AUC(0-last), or Cmax]=α *doseβ).
11.4.7 Deviation from Original Analysis Plan
Deviations from the formal statistical analysis plan will be noted in the final Clinical Study

SMILES: COCCCCCCCCCN1C[C@H](O)[C@@H](O)[C@H](O)[C@H]1CO [UV4]
- CONCENTRATION UV4 in human urine (Cohort 1, nominal day 1, nominal hour 0 (pre-dose), individual subjects): <LLOQ (0.500) ng/mL
- CONCENTRATION UV4 in human urine (Cohort 1, nominal day 1, nominal hour 6, individual subjects): 650 ng/mL and 868 ng/mL
- CONCENTRATION UV4 in human urine (Cohort 1, nominal day 1, nominal hour 12, individual subjects): 414 ng/mL and 455 ng/mL
- CONCENTRATION UV4 in human urine (Cohort 1, nominal day 2, nominal hour 24, individual subjects): 99.1 ng/mL and 451 ng/mL
- CONCENTRATION UV4 in human urine (Cohort 1, nominal day 2, nominal hour 48, individual subjects): 74.6 ng/mL and 166 ng/mL
- CONCENTRATION UV4 in human urine (Cohort 3, nominal day 1, nominal hour 0 (pre-dose), individual subjects): <LLOQ (0.500) ng/mL
- CONCENTRATION UV4 in human urine (Cohort 3, nominal day 1, nominal hour 6, individual subjects): 6240 ng/mL and 8650 ng/mL and 11700 ng/mL
- CONCENTRATION UV4 in human urine (Cohort 3, nominal day 1, nominal hour 12, individual subjects): 8820 ng/mL and 2090 ng/mL and 1200 ng/mL and 11200 ng/mL
- CONCENTRATION UV4 in human urine (Cohort 3, nominal day 2, nominal hour 24, individual subjects): 3300 ng/mL and 754 ng/mL and 614 ng/mL and 3690 ng/mL
- CONCENTRATION UV4 in human urine (Cohort 3, nominal day 2, nominal hour 48, individual subjects): 721 ng/mL and 248 ng/mL and 147 ng/mL and 900 ng/mL
- CONCENTRATION UV4 in human urine (Cohort 4, nominal day 1, nominal hour 0 (pre-dose), individual subjects): <LLOQ (0.500) ng/mL and 1.11 ng/mL
- CONCENTRATION UV4 in human urine (Cohort 4, nominal day 1, nominal hour 6, individual subjects): 46400 ng/mL and 48400 ng/mL and 30900 ng/mL and 140000 ng/mL and 54900 ng/mL and 36000 ng/mL
- CONCENTRATION UV4 in human urine (Cohort 4, nominal day 1, nominal hour 12, individual subjects): 3970 ng/mL and 24500 ng/mL and 26000 ng/mL and 15000 ng/mL and 33100 ng/mL and 11200 ng/mL
- CONCENTRATION UV4 in human urine (Cohort 4, nominal day 2, nominal hour 24, individual subjects): 1230 ng/mL and 7560 ng/mL and 8120 ng/mL and 8370 ng/mL and 4550 ng/mL and 3920 ng/mL
- CONCENTRATION UV4 in human urine (Cohort 4, nominal day 2, nominal hour 48, individual subjects): 367 ng/mL and 2090 ng/mL and 1260 ng/mL and 1810 ng/mL and 473 ng/mL and 648 ng/mL
- CONCENTRATION UV4 in human urine (Cohort 5, nominal day 1, nominal hour 0 (pre-dose), individual subjects): <LLOQ (0.500) ng/mL
- CONCENTRATION UV4 in human urine (Cohort 5, nominal day 1, nominal hour 6, individual subjects): 122000 ng/mL and 104000 ng/mL and 75800 ng/mL and 62800 ng/mL and 65800 ng/mL and 68800 ng/mL
- CONCENTRATION UV4 in human urine (Cohort 5, nominal day 1, nominal hour 12, individual subjects): 17100 ng/mL and 26900 ng/mL and 16200 ng/mL and 22000 ng/mL and 21200 ng/mL and 18200 ng/mL
- CONCENTRATION UV4 in human urine (Cohort 5, nominal day 2, nominal hour 24, individual subjects): 5200 ng/mL and 6760 ng/mL and 4560 ng/mL and 7550 ng/mL and 11900 ng/mL and 7200 ng/mL
- CONCENTRATION UV4 in human urine (Cohort 5, nominal day 2, nominal hour 48, individual subjects): 706 ng/mL and 961 ng/mL and 775 ng/mL and 2920 ng/mL and 2030 ng/mL and 1860 ng/mL
- CONCENTRATION UV4 in human urine (Cohort 6, nominal day 1, nominal hour 0 (pre-dose), individual subjects): <LLOQ (0.500) ng/mL
- CONCENTRATION UV4 in human urine (Cohort 6, nominal day 1, nominal hour 6, individual subjects): 357000 ng/mL and 97600 ng/mL and 326000 ng/mL and 75900 ng/mL and 182000 ng/mL and 126000 ng/mL
- CONCENTRATION UV4 in human urine (Cohort 6, nominal day 1, nominal hour 12, individual subjects): 35000 ng/mL and 12100 ng/mL and 104000 ng/mL and 38000 ng/mL and 15200 ng/mL and 19200 ng/mL
- CONCENTRATION UV4 in human urine (Cohort 6, nominal day 2, nominal hour 24, individual subjects): 6830 ng/mL and 2550 ng/mL and 4060 ng/mL and 7760 ng/mL and 6220 ng/mL and 12700 ng/mL
- CONCENTRATION UV4 in human urine (Cohort 6, nominal day 2, nominal hour 48, individual subjects): 1470 ng/mL and 442 ng/mL and 1480 ng/mL and 1390 ng/mL and 830 ng/mL

From PMC9387934, “Randomized single oral dose phase 1 study of safety, tolerability, and pharmacokinetics of Iminosugar UV-4 Hydrochloride (UV-4B) in healthy subjects” (PLoS Neglected Tropical Diseases, 2022)
